The source of these data is publication PMC4493117, “Characterization of the Prokaryotic Sodium Channel NavSp Pore with a Microfluidic Bilayer Platform” (PLoS ONE, 2015).

Molecules are shown by their SMILES.

The target of the experiment is NavSp pore (Ruegeria pomeroyi, UniProt Q6TMY8). The settings on record: drug added to both sides of bilayer; 0.5 M NaCl, 10 mM HEPES, pH 7.4; room temperature; POPE:POPG 1:1.
Sequence of NavSp pore (Q6TMY8 114-258 limits assumed): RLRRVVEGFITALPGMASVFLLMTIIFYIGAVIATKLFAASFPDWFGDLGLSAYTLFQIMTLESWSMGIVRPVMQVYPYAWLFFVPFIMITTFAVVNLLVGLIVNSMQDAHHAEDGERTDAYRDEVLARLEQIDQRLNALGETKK

`COC(=O)C1=C(C)NC(C)=C(C(=O)OC)C1c1ccccc1[N+](=O)[O-]` [nifedipine]: inhibition was half-maximal at 2950 nM (IC50).

Broadly, the IC50 is the point on the concentration scale where inhibition reaches its midpoint. Read a high IC50 as a need for much substance.
